Assays:
[1] = system: THP-1 macrophages; experiment: Cytokine secretion ELISA, LPS-stimulated differentiated THP-1 cells; type: cell-based, human; conditions: LPS 100 ng/ml, comparison RTD-1 versus marimastat
Procedure: THP-1 monocytes (ATCC, Manassas, Va.) were cultured in RPMI 1640+10% FBS and penicillin/streptomycin (P/S). THP-1 Dual cells (Invivogen, San Diego, Calif.) which express the NF-κB reporter, secreted embryonic alkaline phosphatase (SEAP), were grown in RPMI 1640+10% HI-FBS and antibiotics. THP-1 cell differentiation was induced by treatment of cells (˜3.3×10^5 cells/ml) with 100 nM PMA and cultured for 2 days. HEK-Blue™ hTLR9 cells (Invivogen) were grown in DMEM medium containing 10% HI-FBS, P/S and normocin. Cells were cultured at 37° C. in 5% CO2. Cytokine assays. PMA-differentiated THP-1 cells (˜8×10^5 cells) cultured in 6-well plates were washed twice with complete medium and grown in fresh medium containing 1% FBS for 24 hours. Cells were washed twice with fresh medium and incubated for 2 hours prior to further manipulation. Cells were stimulated with 100 ng/ml LPS in the presence or absence of 10 μg/ml RTD-1 or vehicle (0.01% acetic acid) for 2 hours. In some experiments, cells were first incubated for 1 hour with 10 μg/ml of marimastat or vehicle (DMSO), after which LPS and/or RTD-1 were added and incubated for 2 hours as above. Peripheral blood CD14+ monocytes (Lonza, Walkersville, Md.) were thawed, rinsed with RPMI 1640 containing 10% HI FBS, P/S and normocin and then resuspended in RPMI 1640 containing 1% HI FBS plus antibiotics as above (10^6 cells/nil) for 2 hours. The cells were then stimulated for 4 hours as described in the legend. Medium was collected, clarified by centrifugation first at 250×g for 8 minutes and then at 5000×g for 5 minutes. TNF-α, IL-1β and IL-8 were quantified by ELISA (Life Technologies, Carlsbad, Calif.).

[2] = system: NF-κB; experiment: NF-κB activity assay (SEAP reporter, Quantiblue) in THP-1 Dual cells; type: cell-based, human; conditions: LPS 100 ng/ml, comparison RTD-1 versus marimastat; RTD-1 in the presence or absence of marimastat
Procedure: One ml aliquots of PMA-differentiated THP-1 Dual cells (3.3×10^5 cells/nil) in 24 well tissue culture plates were starved for 1 day in complete medium with 1% HI FBS as described above. For experiments with S7 peptide, 0.5 ml cultures in 48 well plates were used. Fresh medium containing 1% HI FBS was added to the cells and after 2 hours cells were stimulated with 100 ng/ml LPS or 25 ng/ml Pam3CSK4 in the presence of RTD-1 or 0.01% acetic acid (HOAc, vehicle). In some experiments cells were pre-incubated with marimastat, Ly294002 or vehicle for 1 hour prior to addition of LPS and/or RTD-1 (SEQ ID NO. 1). Following overnight incubation, medium was clarified by centrifugation and SEAP activity was determined using Quantiblue reagent at 37° C. and measurement of absorbance at 625 nm. To test the effect of RTD-1 on TLR9-dependent NF-κB activation, 2×10^5 HEK-Blue™ hTLR9 cells/ml were cultured for 1 day in 24 well plates and stimulated overnight with ODN2006 with or without RTD-1. Medium was harvested and SEAP activity was assayed using Quantiblue™ as above. NF-κB activation was defined as fold stimulation of SEAP activity with respect to control cells.

CNC(=O)[C@@H](NC(=O)[C@H](CC(C)C)[C@H](O)C(=O)NO)C(C)(C)C [marimastat, reference compound]
release of TNF-α by LPS-stimulated THP-1 cells [1]: efficiently blocked
secretion of IL-1β by LPS-stimulated THP-1 cells [1]: did not affect
LPS-stimulated NF-κB activation [2]: no effect
